Data on 2 molecules can be found in US8227207B2, “Bioactive peptides derived from the proteins of egg white by means of enzymatic hydrolysis” (Consejo Superior de Investigaciones Cientifcas, priority 2004, dated 2012).

Residues, ends and D or L forms follow the SMILES beside them.

Experiment [1] addresses T1, angiotensin converting enzyme (ACE, EC 3.4.15.1) (Oryctolagus cuniculus, UniProt P12822).
T1 sequence (P12822 34-1310): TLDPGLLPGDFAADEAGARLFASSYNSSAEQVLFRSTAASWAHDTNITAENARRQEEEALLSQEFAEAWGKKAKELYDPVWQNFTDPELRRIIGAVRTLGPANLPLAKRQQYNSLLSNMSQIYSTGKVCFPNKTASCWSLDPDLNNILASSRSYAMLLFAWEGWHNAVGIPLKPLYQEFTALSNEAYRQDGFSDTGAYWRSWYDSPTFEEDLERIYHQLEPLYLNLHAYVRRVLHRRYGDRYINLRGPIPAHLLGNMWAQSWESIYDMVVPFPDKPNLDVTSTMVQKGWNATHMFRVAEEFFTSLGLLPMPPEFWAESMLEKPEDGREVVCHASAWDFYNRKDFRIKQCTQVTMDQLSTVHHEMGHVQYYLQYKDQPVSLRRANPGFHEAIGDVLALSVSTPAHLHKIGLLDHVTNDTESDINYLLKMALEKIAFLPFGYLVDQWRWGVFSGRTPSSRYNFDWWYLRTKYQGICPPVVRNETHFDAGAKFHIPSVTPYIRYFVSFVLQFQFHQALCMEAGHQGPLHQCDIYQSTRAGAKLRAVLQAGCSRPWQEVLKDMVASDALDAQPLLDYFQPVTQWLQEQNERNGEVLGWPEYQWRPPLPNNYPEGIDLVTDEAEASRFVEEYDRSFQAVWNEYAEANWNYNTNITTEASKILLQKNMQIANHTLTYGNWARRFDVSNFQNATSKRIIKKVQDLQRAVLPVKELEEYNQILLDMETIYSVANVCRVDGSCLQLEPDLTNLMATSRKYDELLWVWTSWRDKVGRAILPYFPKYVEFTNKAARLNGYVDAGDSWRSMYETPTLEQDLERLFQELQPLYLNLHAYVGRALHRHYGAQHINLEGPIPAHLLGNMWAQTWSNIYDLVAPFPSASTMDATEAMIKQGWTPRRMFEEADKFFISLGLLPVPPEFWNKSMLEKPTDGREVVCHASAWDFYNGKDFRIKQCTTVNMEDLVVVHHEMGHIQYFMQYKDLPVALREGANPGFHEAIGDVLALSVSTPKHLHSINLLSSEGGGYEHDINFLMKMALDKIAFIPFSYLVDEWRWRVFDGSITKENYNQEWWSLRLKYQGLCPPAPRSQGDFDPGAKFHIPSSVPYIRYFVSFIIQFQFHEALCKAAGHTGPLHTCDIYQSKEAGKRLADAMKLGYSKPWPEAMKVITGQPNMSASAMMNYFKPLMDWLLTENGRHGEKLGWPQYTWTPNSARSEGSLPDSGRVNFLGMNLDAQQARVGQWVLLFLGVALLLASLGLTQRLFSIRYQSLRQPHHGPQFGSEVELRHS
Type of experiment: biochemical. The method, then:
(§1) The inhibitory activity of the angiotensin converting enzyme (ACE) is measured in vitro according to the method of D. W. Cushman and H. S. Cheung (Spectrophotometric assay and properties of the angiotensin-converting enzyme of rabbit lung. Biochemical Pharmacology, 1971, 20: 1637-1648), later on modified by Y. K. Kim, S. Yoon, D. Y. Yu, B. Lönnerdal and B. H. Cheung (Novel angiotensin-I-converting enzyme inhibitory peptides derived from recombinant human αs1-casein expressed in Escherichia coli, Journal of Dairy Research 1999, 66, 431-439).
(§2) The substrate hippuryl histidyl leucine (HHL, Sigma Chemicals Co., St. Louis, Mo., USA) is dissolved in a 0.1 M borate buffer with 0.3 M NaCl pH 8.3 to obtain a final concentration of 5 mM. To 100 μl of substrate are added 40 μl of each of the samples whose ACEI activity it is wished to determine. The ACE enzyme (EC 3.4.15.1, Sigma) is added, dissolved in 50% glycerol and diluted 1/10 in bidistilled water at the moment of conducting the assay. The reaction is carried out at 37° C. for 30 minutes in a water-bath. The enzyme is deactivated by lowering the pH with 150 μl of 1 N HCl. The hippuric acid formed is extracted with 1000 μl of ethyl acetate. Following vortex stirring for 20 seconds, it is centrifuged at 4000 rpm for 10 minutes at room temperature. 750 μl of the organic phase are taken and evaporated by heating at 95° C. for 10 minutes. The hippuric acid residue is redissolved in 800 μl of bidistilled water and, following stirring for 20 seconds, the absorbency at 228 nm is measured in a Dur-70 spectrophotometer from Beckman Instruments, Inc., Fullerton, USA.
(§3) In order to calculate the percentage of ACEI activity, the following formula is used
(§4) The blank is used for correcting the background absorbency. This contains substrate, enzyme and 20 μl of bidistilled water in place of the sample, and the reaction is halted at zero time. The control implies a hundred percent of the enzymatic action on the substrate in the absence of inhibitors and contains 20 μl of water in place of the sample and is incubated the same time as the sample.
(§5) The results are presented as the IC50 (μM or μg/ml) or concentration at which 50% of the enzyme's activity is inhibited. The concentration of protein is determined by means of the bicinchonomic acid (BCA) assay (Pierce, Rockford, Ill., USA) using bovine seroalbumin as reference.

The next experiment has as its target ACE (Homo sapiens, UniProt P12821). As to conditions: according to the cited authors; listed as ovokinin; cited from earlier work.
Experiment [2] has as its system canine mesenteric arteries. As to conditions: listed as ovokinin; cited from earlier work.
Experiment [3] concerns spontaneously hypertensive rats (SHR). As to conditions: ovokinin oral 100 mg/kg, ovokinin (2-7) 10 mg/kg; cited from earlier work.
Experiment [4] has as its system angiotensin converting enzyme (ACE) (EC 3.4.15.1, Sigma). The experiment is described as follows: In vitro inhibitory activity of the angiotensin converting enzyme (ACEI activity). The class given is biochemical. As to conditions: result in words. The method, then:
Measurement of the Inhibitory Activity of the Angiotensin Converting Enzyme (ACEI Activity)
as §1, §2, §3, §4, §5

In experiment [5] the test system is spontaneously hypertensive rats (SHR). As to conditions: SHR; literature; ovokinin orally 100 mg/kg; cited from earlier work.
In experiment [6] the test system is canine mesenteric arteries. As to conditions: literature; cited from earlier work.

Sequence of ACE (P12821 30-1306, species assumed): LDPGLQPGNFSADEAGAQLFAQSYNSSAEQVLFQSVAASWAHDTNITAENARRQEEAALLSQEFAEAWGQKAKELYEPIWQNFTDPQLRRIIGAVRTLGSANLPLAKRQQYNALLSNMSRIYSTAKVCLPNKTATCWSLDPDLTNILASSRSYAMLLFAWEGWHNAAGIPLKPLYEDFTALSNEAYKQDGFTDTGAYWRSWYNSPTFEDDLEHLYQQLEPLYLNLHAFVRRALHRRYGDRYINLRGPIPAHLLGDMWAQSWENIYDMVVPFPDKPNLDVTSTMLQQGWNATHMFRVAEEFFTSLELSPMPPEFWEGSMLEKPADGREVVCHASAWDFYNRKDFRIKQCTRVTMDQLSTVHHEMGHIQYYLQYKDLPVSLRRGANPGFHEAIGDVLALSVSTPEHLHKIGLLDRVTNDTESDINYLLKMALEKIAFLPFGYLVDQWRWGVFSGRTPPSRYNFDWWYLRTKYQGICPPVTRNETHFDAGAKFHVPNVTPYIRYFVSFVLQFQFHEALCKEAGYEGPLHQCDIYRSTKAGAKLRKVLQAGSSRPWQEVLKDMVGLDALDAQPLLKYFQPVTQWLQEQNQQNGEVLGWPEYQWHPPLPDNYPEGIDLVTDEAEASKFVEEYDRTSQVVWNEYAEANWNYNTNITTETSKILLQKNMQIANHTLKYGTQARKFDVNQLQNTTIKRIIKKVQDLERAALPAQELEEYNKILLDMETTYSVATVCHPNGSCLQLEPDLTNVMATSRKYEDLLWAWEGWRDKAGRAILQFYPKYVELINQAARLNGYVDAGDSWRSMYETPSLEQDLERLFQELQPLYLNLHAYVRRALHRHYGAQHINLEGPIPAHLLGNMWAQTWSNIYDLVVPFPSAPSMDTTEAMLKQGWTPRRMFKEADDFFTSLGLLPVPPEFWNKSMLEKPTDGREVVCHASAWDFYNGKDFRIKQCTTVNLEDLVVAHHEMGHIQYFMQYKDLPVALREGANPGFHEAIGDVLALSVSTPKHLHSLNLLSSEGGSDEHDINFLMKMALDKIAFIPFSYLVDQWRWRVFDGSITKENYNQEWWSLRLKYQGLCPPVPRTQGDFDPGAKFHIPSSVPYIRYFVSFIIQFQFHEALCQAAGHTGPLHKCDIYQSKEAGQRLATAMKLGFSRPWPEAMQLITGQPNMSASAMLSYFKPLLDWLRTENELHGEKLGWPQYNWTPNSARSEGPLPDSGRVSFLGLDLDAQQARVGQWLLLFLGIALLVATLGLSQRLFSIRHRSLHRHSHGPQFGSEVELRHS

Consider `CC(C)C[C@H](NC(=O)[C@H](Cc1ccccc1)NC(=O)[C@@H]1CCCN1C(=O)[C@H](Cc1c[nH]cn1)NC(=O)[C@H](CC(=O)O)NC(=O)[C@H](C)NC(=O)[C@H](CCCNC(=N)N)NC(=O)[C@@H](N)Cc1ccccc1)C(=O)O` [SEQ. ID. N^o 5] (H-FRADHPFL-OH; N-terminus and C-terminus assumed), for which, in experiment [1] (peptides), the “ACEI activity in vitro (in words)” value was “potent ACEI activity”. The IC50 in experiment [1] (read-out: ACEI activity IC50, synthetic peptides) was 3.2 µM. In addition, at ACE, the “ACEI activity (in words)” value is “did not possess ACEI activity”. For the same molecule, the “vasorelaxing (vasodilatory) activity (in words)” value in experiment [2] is “displayed vasorelaxing activity”. Also, the “anti-hypertensive / vasodilatory activity in SHR (in words)” value in experiment [3] is given as “possessed anti-hypertensive activity”.
Consider `CC(C)C[C@H](NC(=O)[C@H](Cc1ccccc1)NC(=O)[C@@H]1CCCN1C(=O)[C@H](Cc1cnc[nH]1)NC(=O)[C@H](CC(=O)O)NC(=O)[C@H](C)NC(=O)[C@H](CCCNC(=N)N)NC(=O)[C@@H](N)Cc1ccccc1)C(=O)O` [SEQ. ID. No 5] (H-FRADHPFL-OH), for which, in experiment [4], the “ACEI activity in vitro” value is given as “potent ACEI activity in vitro”. In addition, in experiment [5], the anti-hypertensive activity entry is given as “possessed anti-hypertensive activity when administered orally to spontaneously hypertensive rats (SHR) at doses of 100 mg/kg”. Moreover, in experiment [6], the vasorelaxing activity entry is listed as “displayed vasorelaxing activity in canine mesenteric arteries”.
